Values of other authors in patent publication US20040029892A1, “Compositions and dosage forms for application in the oral cavity in the treatment of mykoses” (priority 2003, published 2004).

Conditions: almost insoluble

CCC(C)n1ncn(-c2ccc(N3CCN(c4ccc(OCC5COC(Cn6cncn6)(c6ccc(Cl)cc6Cl)O5)cc4)CC3)cc2)c1=O (racemic) [itraconazole, (±)-cis-4-[4-[4-[4-[[2-(2,4-dichlorophenyl)-2(1H-1,2,4-triazol-1-yl-methyl)-1,3-dioxolan-4-yl]methoxy]phenyl]-1piperazinyl]phenyl]-2,4-dihydro-2-(1-methylpropyl)-3H-1,2,4-triazol-3-one]
solubility in water: less than 1 μg/ml
